Results on 7 compounds are retold here after US11499963B2, “Induction of differentiation of induced pluripotent stem cells into intestinal epithelial cells” (PUBLIC UNIVERSITY CORPORATION NAGOYA CITY UNIVERSITY, priority 2016, dated 2022).

For data set [1], the system named is CYP3A4. As to the kind of experiment: Metabolic activity of midazolam (CYP3A4 metabolic activity) in differentiated intestinal epithelial cell-like cells. It counts as cell-based, human. To be noted: VD3 10 nmol/L; cells induced to differentiate using 8-Br-cAMP and IBMX; midazolam 100 μmol/L. As for the experimental part:
The metabolic activity was calculated from the amount of 1-hydroxymidazolam in the medium measured using a liquid chromatography-mass spectrometer (LC-MS/MS). After completion of the experiment on metabolism, protein quantification was carried out, and the metabolic activity was corrected by the amount of protein.

The subject of data set [2] is CYP3A4.
Another data set addresses T1, ALK4 (Homo sapiens, UniProt P36896).
T1 sequence (P36896 24-505): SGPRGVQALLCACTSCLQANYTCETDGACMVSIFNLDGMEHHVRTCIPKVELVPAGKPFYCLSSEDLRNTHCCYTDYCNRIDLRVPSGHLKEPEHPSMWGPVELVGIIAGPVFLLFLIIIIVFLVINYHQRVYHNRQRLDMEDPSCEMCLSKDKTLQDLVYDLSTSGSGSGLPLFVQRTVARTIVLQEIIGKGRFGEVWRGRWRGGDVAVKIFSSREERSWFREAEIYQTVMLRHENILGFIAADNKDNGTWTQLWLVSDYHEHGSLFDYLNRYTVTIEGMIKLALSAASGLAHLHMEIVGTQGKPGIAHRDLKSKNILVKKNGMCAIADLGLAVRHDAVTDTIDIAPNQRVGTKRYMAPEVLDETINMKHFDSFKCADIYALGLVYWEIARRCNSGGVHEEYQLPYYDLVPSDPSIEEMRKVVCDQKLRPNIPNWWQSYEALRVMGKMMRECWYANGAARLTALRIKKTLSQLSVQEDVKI
To be noted: cited from earlier work.

Another data set has as its target T2, ALK5 (Homo sapiens, UniProt P36897).
T2 sequence (P36897 34-503): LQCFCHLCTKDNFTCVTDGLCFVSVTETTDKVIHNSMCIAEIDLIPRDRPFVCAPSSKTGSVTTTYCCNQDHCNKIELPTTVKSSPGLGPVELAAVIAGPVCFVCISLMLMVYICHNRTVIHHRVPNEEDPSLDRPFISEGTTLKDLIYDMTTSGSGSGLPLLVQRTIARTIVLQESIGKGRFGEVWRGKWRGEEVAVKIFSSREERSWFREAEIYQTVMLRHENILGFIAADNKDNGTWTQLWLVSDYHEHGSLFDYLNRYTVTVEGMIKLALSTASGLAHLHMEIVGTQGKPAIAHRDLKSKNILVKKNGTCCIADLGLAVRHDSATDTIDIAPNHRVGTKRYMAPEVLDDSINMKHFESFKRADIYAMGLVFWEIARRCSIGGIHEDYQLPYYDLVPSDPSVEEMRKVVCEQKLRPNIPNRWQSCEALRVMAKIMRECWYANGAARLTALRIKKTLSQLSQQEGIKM
Particulars: cited from earlier work.

The target of another data set is T3, ALK7 (Homo sapiens, UniProt Q8NER5).
T3 sequence (Q8NER5 21-493): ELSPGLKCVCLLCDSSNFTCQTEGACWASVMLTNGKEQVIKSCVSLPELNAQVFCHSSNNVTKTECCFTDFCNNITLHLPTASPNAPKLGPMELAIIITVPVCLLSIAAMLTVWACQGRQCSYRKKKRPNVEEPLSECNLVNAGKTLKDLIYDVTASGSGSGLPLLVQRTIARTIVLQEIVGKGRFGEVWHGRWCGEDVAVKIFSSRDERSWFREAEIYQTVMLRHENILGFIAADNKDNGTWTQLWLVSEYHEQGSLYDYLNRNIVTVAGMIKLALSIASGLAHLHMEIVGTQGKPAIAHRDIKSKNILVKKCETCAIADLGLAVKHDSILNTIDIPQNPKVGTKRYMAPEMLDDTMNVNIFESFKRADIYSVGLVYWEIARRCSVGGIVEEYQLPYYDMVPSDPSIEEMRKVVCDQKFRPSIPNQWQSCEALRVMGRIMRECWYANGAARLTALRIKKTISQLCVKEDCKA
To be noted: cited from earlier work.

The subject of a further data set is OATP. Put plainly: Uptake of estrone-3-sulfate (ES) (OATP transport activity). It counts as cell-based, human. To be noted: BSP 0.2 mmol/L; cells induced to differentiate using 8-Br-cAMP and IBMX. The protocol:
(§1) After completion of induction of differentiation, incubation was performed at 37° C. or 4° C. with an uptake solution containing tritium-labeled Gly-Sar or ES. In the Gly-Sar uptake experiment, there was used an uptake solution containing 137 mmol/L sodium chloride, 5.4 mmol/L potassium chloride, 0.81 mmol/L magnesium sulfate, 0.44 mmol/L potassium dihydrogen phosphate, 0.34 mmol/L disodium hydrogen phosphate, 1.3 mmol/L calcium chloride, 4.2 mmol/L sodium hydrogen carbonate, 5.6 mmol/L D-glucose and 10 mmol/L MES and having a pH of 6.0. In the ES uptake experiment, there was used an uptake solution containing 137 mmol/L sodium chloride, 5.4 mmol/L potassium chloride, 0.81 mmol/L magnesium sulfate, 0.44 mmol/L potassium dihydrogen phosphate, 0.34 mmol/L disodium hydrogen phosphate, 1.3 mmol/L calcium chloride, 4.2 mmol/L sodium hydrogen carbonate, 5.6 mmol/L D-glucose, and 10 mmol/L HEPES and having a pH of 7.4. After completion of incubation, uptake was stopped by washing the cells with the ice-cold uptake solution. Thereafter, the cells were solubilized with a 0.2 M sodium hydroxide solution containing 0.5% sodium dodecyl sulfate (SDS), and a scintillation solution was added. The intracellular uptake of Gly-Sar or ES was calculated from the radioactivity measured using a liquid scintillation counter.

The next data set has as its target T4, PEPT1 (Homo sapiens, UniProt P46059).
T4 construct: uptake of glycylsarcosine (Gly-Sar) in the differentiated intestinal epithelial cell-like cells (PEPT1 transport activity); endogenous in cells; host or cells: human iPS cell (iPS-51: Windy)-derived intestinal epithelial cell-like cells
T4 sequence (P46059 1-708): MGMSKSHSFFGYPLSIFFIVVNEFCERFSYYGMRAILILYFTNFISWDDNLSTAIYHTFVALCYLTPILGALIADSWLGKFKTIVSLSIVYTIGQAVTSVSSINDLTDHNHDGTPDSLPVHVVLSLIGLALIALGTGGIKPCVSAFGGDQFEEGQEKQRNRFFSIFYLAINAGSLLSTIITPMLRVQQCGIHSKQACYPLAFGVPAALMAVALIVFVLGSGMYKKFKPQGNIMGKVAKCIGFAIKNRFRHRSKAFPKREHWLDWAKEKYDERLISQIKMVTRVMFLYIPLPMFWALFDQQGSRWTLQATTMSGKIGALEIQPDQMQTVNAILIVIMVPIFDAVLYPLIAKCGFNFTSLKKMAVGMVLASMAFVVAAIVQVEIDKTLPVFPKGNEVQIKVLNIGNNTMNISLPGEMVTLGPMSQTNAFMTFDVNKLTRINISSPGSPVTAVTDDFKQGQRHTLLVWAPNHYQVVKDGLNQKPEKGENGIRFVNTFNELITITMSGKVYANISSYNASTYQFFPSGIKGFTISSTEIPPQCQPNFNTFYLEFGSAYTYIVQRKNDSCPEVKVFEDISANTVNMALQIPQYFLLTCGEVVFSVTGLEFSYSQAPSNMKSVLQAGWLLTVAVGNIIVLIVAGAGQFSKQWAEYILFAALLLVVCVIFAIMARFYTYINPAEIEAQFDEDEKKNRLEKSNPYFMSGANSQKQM
As to the kind of experiment: Uptake of glycylsarcosine (Gly-Sar) (PEPT1 transport activity). It is filed as cell-based. Particulars: ibuprofen 3 mmol/L. The protocol:
as §1

The test system of another data set is mucin 2. Put plainly: Expression (mRNA level) of mucin 2 in iPS cell-derived intestinal epithelial cell-like cells. Particulars: for expression (mRNA level) of mucin 2 (mucosa protecting action): added for 6 days, irsogladine 10, 40 μM, rebamipide 50, 100, 250, 1000 μM, vs control.

Each structure is given as a SMILES string.

On to `C=C1/C(=C\C=C2/CCC[C@]3(C)[C@@H]([C@H](C)CCCC(C)(C)O)CC[C@@H]23)C[C@@H](O)C[C@@H]1O` [1α,25-dihydroxyvitamin D3], for which the “activity of CYP3A4 (1-hydroxymidazolam formation) upon inducer treatment” value with CYP3A4 [1] was “significantly increased”. The “induction of CYP3A4 expression” value in the data set with CYP3A4 [2] is “observed”.
With `Cc1cccc(-c2nn(C(=S)Nc3ccccc3)cc2-c2ccnc3ccccc23)n1` [A-83-01], the “inhibitory activity against TGF-β receptor ALK4” value at ALK4 is “shows inhibitory activity”. Besides, the “inhibitory activity against TGF-β receptor ALK5” value on ALK5 was “shows inhibitory activity”. For the same compound, on ALK7, the “inhibitory activity against TGF-β receptor ALK7” value is “shows inhibitory activity”.
In the case of `O=C1OC(c2ccc(O)c(S(=O)(=O)O)c2)(c2ccc(O)c(S(=O)(=O)O)c2)c2c(Br)c(Br)c(Br)c(Br)c21` [BSP, bromsulphthalein], in the data set on OATP, the “uptake of ES in the presence of inhibitor” value is “significantly reduced”.
As for `CC(C)Cc1ccc(C(C)C(=O)O)cc1` (centres unmarked) [ibuprofen], the “Gly-Sar uptake in the presence of inhibitor” value is on record as “significantly reduced” on PEPT1 (cells by the conventional differentiation method); “significantly reduced” on PEPT1 (cells induced to differentiate using 8-Br-cAMP and IBMX).
Consider `Nc1nc(N)nc(-c2cc(Cl)ccc2Cl)n1` [irsogladine], for which the “expression (mRNA level) of mucin 2 (mucosa protecting action)” value with mucin 2 is reported as “increased”.
On to `CC(C(=O)O)c1cccc(C(=O)c2ccccc2)c1` (centres unmarked) [ketoprofen], for which, in the data set with mucin 2 (ketoprofen 200 μM for 6 days, excepted from the decrease seen with NSAIDs), the “expression (mRNA level) of mucin 2 (mucosa damaging action)” value is “except for ketoprofen-200”.
On to `O=C(NC(Cc1cc(=O)[nH]c2ccccc12)C(=O)O)c1ccc(Cl)cc1` (centres unmarked) [rebamipide], for which the “expression (mRNA level) of mucin 2 (mucosa protecting action)” value in the data set with mucin 2 is recorded as “increased”.
